Active and inactive are the calls of the source. No rule for the calls is given here.
System: CCRIS mutagenicity, Ames/micronucleus/aberration tests
Assay: CCRIS mutagenicity studies
[1] = Test System: AMES SALMONELLA TYPHIMURIUM, Strain/Indicator: TA98, Metabolic Activation: NONE, Method: STANDARD PLATE
[2] = Test System: AMES SALMONELLA TYPHIMURIUM, Strain/Indicator: TA98, Metabolic Activation: RAT, LIVER, S-9, AROCLOR 1254, Method: STANDARD PLATE
[3] = Test System: AMES SALMONELLA TYPHIMURIUM, Strain/Indicator: TA100, Metabolic Activation: NONE, Method: STANDARD PLATE
[4] = Test System: AMES SALMONELLA TYPHIMURIUM, Strain/Indicator: TA100, Metabolic Activation: RAT, LIVER, S-9, AROCLOR 1254, Method: STANDARD PLATE
[5] = Test System: AMES SALMONELLA TYPHIMURIUM, Strain/Indicator: TA98, Metabolic Activation: NONE, Method: PREINCUBATION
[6] = Test System: AMES SALMONELLA TYPHIMURIUM, Strain/Indicator: TA100, Metabolic Activation: NONE, Method: PREINCUBATION
[7] = Test System: AMES SALMONELLA TYPHIMURIUM, Strain/Indicator: TA1535, Metabolic Activation: NONE, Method: PREINCUBATION
[8] = Test System: AMES SALMONELLA TYPHIMURIUM, Strain/Indicator: TA1537, Metabolic Activation: NONE, Method: PREINCUBATION

O=C1OC(CN2CCOCC2)CN1/N=C/c1ccc([N+](=O)[O-])o1 (centres undefined)
mutagenic call (Test System: E. COLI, Strain/Indicator: WP2, Metabolic Activation: NONE, Method: SPOT): active; positive
mutagenic call (Test System: E. COLI, Strain/Indicator: WP2 UVRA, Metabolic Activation: NONE, Method: SPOT): active; positive
mutagenic call (Test System: E. COLI, Strain/Indicator: WP2 UVRA, Metabolic Activation: NONE, Method: STANDARD PLATE): active; positive

O=C1C=CC(=O)N1
mutagenic call (Test System: AMES SALMONELLA TYPHIMURIUM, Strain/Indicator: TA98, Metabolic Activation: HAMSTER, LIVER, S-9, AROCLOR 1254, Method: STANDARD PLATE): active; positive
mutagenic call [1]: active; positive
mutagenic call [2]: active; positive
mutagenic call (Test System: AMES SALMONELLA TYPHIMURIUM, Strain/Indicator: TA100, Metabolic Activation: HAMSTER, LIVER, S-9, AROCLOR 1254, Method: STANDARD PLATE): inactive; negative
mutagenic call [3]: inactive; negative
mutagenic call [4]: active; positive
mutagenic call (Test System: MOUSE LYMPHOMA, Strain/Indicator: L5178Y (TK+/TK-), Metabolic Activation: NONE, Method: SUSPENSION/PLATE): active; positive. reevaluation of results: inconclusive
mutagenic call (Test System: MOUSE LYMPHOMA, Strain/Indicator: L5178Y (TK+/TK-), Metabolic Activation: RAT, LIVER, S-9, AROCLOR 1254, Method: SUSPENSION/PLATE): active; positive. reevaluation of results: positive

C1=c2ccccc2=C2Cc3ccccc3C3=C4OC4=C1C32 (centres undefined)
mutagenic call [1]: active; positive
mutagenic call [2]: active; positive

O=C(O)CO.[NH2-].[NH2-].[Pt+2]
mutagenic call [5]: active; positive
mutagenic call (Test System: AMES SALMONELLA TYPHIMURIUM, Strain/Indicator: TA98, Metabolic Activation: RAT, LIVER, S-9, PHENOBARBITAL AND 5,6-BENZOFLAVONE, Method: PREINCUBATION): active; positive
mutagenic call [6]: active; positive
mutagenic call (Test System: AMES SALMONELLA TYPHIMURIUM, Strain/Indicator: TA100, Metabolic Activation: RAT, LIVER, S-9, PHENOBARBITAL AND 5,6-BENZOFLAVONE, Method: PREINCUBATION): active; positive
mutagenic call [7]: inactive; negative
mutagenic call (Test System: AMES SALMONELLA TYPHIMURIUM, Strain/Indicator: TA1535, Metabolic Activation: RAT, LIVER, S-9, PHENOBARBITAL AND 5,6-BENZOFLAVONE, Method: PREINCUBATION): inactive; negative
mutagenic call [8]: inactive; negative
mutagenic call (Test System: AMES SALMONELLA TYPHIMURIUM, Strain/Indicator: TA1537, Metabolic Activation: RAT, LIVER, S-9, PHENOBARBITAL AND 5,6-BENZOFLAVONE, Method: PREINCUBATION): inactive; negative
mutagenic call (Test System: E.COLI, Strain/Indicator: WP2 UVRA, Metabolic Activation: NONE, Method: PREINCUBATION): inactive; negative
mutagenic call (Test System: E.COLI, Strain/Indicator: WP2 UVRA, Metabolic Activation: RAT, LIVER, S-9 PHENOBARBITAL AND 5,6-BENZOFLAVONE, Method: PREINCUBATION): inactive; negative

CCn1c(N)nc2c3cccnc3ccc21
mutagenic call (Test System: AMES SALMONELLA TYPHIMURIUM, Strain/Indicator: TA98, Metabolic Activation: RAT, LIVER, S-9, AROCLOR 1254, Method: PREINCUBATION): active; positive

CN(C)c1ccc(N=Nc2ccccc2C(=O)O)cc1
mutagenic call (Test System: AMES SALMONELLA TYPHIMURIUM, Strain/Indicator: TA98, Metabolic Activation: RAT, LIVER, S-9, POLYCHLORINATED BIPHENYLS, Method: PREINCUBATION): active; positive
mutagenic call (Test System: AMES SALMONELLA TYPHIMURIUM, Strain/Indicator: TA100, Metabolic Activation: RAT, LIVER, S-9, POLYCHLORINATED BIPHENYLS, Method: PREINCUBATION): inactive; negative

CC(C)Nc1nc(Cl)nc(NC(C)C)n1
mutagenic call (Test System: AMES SALMONELLA TYPHIMURIUM, Strain/Indicator: TA97, Metabolic Activation: NONE, Method: STANDARD PLATE): inactive; negative
mutagenic call (Test System: AMES SALMONELLA TYPHIMURIUM, Strain/Indicator: TA97, Metabolic Activation: RAT, LIVER, S-9, AROCLOR 1254, Method: STANDARD PLATE): inactive; negative
mutagenic call (Test System: AMES SALMONELLA TYPHIMURIUM, Strain/Indicator: TA97A, Metabolic Activation: NONE, Method: STANDARD PLATE): inactive; negative
mutagenic call (Test System: AMES SALMONELLA TYPHIMURIUM, Strain/Indicator: TA97A, Metabolic Activation: RAT, LIVER, S-9, AROCLOR 1254, Method: STANDARD PLATE): inactive; negative
mutagenic call [1]: inactive; negative
mutagenic call [2]: inactive; negative
mutagenic call [3]: inactive; negative
mutagenic call [4]: inactive; negative
mutagenic call (Test System: AMES SALMONELLA TYPHIMURIUM, Strain/Indicator: TA102, Metabolic Activation: NONE, Method: STANDARD PLATE): inactive; negative
mutagenic call (Test System: AMES SALMONELLA TYPHIMURIUM, Strain/Indicator: TA102, Metabolic Activation: RAT, LIVER, S-9, AROCLOR 1254, Method: STANDARD PLATE): inactive; negative
mutagenic call (Test System: AMES SALMONELLA TYPHIMURIUM, Strain/Indicator: TA1535, Metabolic Activation: NONE, Method: STANDARD PLATE): inactive; negative
mutagenic call (Test System: AMES SALMONELLA TYPHIMURIUM, Strain/Indicator: TA1535, Metabolic Activation: RAT, LIVER, S-9, AROCLOR 1254, Method: STANDARD PLATE): inactive; negative
mutagenic call (Test System: AMES SALMONELLA TYPHIMURIUM, Strain/Indicator: TA1537, Metabolic Activation: NONE, Method: STANDARD PLATE): inactive; negative
mutagenic call (Test System: AMES SALMONELLA TYPHIMURIUM, Strain/Indicator: TA1537, Metabolic Activation: RAT, LIVER, S-9, AROCLOR 1254, Method: STANDARD PLATE): inactive; negative
mutagenic call (Test System: AMES SALMONELLA TYPHIMURIUM, Strain/Indicator: TA1538, Metabolic Activation: NONE, Method: STANDARD PLATE): inactive; negative
mutagenic call (Test System: AMES SALMONELLA TYPHIMURIUM, Strain/Indicator: TA1538, Metabolic Activation: RAT, LIVER, S-9, AROCLOR 1254, Method: STANDARD PLATE): inactive; negative

[Cl][V]([Cl])[Cl]
mutagenic call [5]: inactive; negative
mutagenic call (Test System: AMES SALMONELLA TYPHIMURIUM, Strain/Indicator: TA98, Metabolic Activation: RAT LIVER S-9, PHENOBARBITAL AND BETA-NAPHTHOFLAVONE, Method: PREINCUBATION): inactive; negative
mutagenic call [6]: inactive; negative
mutagenic call (Test System: AMES SALMONELLA TYPHIMURIUM, Strain/Indicator: TA100, Metabolic Activation: RAT LIVER S-9, PHENOBARBITAL AND BETA-NAPHTHOFLAVONE, Method: PREINCUBATION): inactive; negative
mutagenic call [7]: inactive; negative
mutagenic call (Test System: AMES SALMONELLA TYPHIMURIUM, Strain/Indicator: TA1535, Metabolic Activation: RAT LIVER S-9, PHENOBARBITAL AND BETA-NAPHTHOFLAVONE, Method: PREINCUBATION): inactive; negative
mutagenic call [8]: inactive; negative
mutagenic call (Test System: AMES SALMONELLA TYPHIMURIUM, Strain/Indicator: TA1537, Metabolic Activation: RAT LIVER S-9, PHENOBARBITAL AND BETA-NAPHTHOFLAVONE, Method: PREINCUBATION): inactive; negative
mutagenic call (Test System: AMES SALMONELLA TYPHIMURIUM, Strain/Indicator: TA1538, Metabolic Activation: NONE, Method: PREINCUBATION): inactive; negative
mutagenic call (Test System: AMES SALMONELLA TYPHIMURIUM, Strain/Indicator: TA1538, Metabolic Activation: RAT LIVER S-9, PHENOBARBITAL AND BETA-NAPHTHOFLAVONE, Method: PREINCUBATION): inactive; negative
mutagenic call (Test System: E.COLI, Strain/Indicator: WP2UVRA, Metabolic Activation: NONE, Method: PREINCUBATION): inactive; negative
mutagenic call (Test System: E.COLI, Strain/Indicator: WP2UVRA, Metabolic Activation: RAT LIVER S-9, PHENOBARBITAL AND BETA-NAPHTHOFLAVONE, Method: PREINCUBATION): inactive; negative

— PubChem BioAssay AID1259407 (Chemical Carcinogenesis Research Information System (CCRIS), 2018)
